The target in the test is T1, 5-lipoxygenase (isolated human leukocytes) (Homo sapiens, UniProt P09917).
T1 construct: 5-Lipoxygenase Assay Using Isolated Human Leukocytes (5LOA2); endogenous in cells; host or cells: isolated human blood leukocytes, platelets removed
T1 sequence (P09917 1-674): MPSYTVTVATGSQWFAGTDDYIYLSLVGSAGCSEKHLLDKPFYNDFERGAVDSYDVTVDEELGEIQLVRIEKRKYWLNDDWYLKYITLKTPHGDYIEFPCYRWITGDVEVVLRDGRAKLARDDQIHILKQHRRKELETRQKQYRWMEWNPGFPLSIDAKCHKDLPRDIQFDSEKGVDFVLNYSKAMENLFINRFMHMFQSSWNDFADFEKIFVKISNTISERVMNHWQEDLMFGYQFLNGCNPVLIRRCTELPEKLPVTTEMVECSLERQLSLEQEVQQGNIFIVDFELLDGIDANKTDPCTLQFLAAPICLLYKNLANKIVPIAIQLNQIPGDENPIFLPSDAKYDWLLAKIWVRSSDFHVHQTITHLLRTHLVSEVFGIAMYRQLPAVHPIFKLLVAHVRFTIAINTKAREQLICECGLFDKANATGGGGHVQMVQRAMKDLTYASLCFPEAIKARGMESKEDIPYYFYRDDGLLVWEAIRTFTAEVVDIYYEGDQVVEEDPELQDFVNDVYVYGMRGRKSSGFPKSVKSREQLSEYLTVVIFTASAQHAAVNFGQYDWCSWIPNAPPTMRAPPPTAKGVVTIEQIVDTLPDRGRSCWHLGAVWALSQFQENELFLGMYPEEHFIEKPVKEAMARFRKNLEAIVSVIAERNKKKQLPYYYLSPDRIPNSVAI
Put plainly: 5-Lipoxygenase Assay Using Isolated Human Leukocytes (5LOA2). The format is cell-based. The note with it: 5LOA2; 50% inhibition of 5-HETE formation; E -number means X 10^-no.; read-out: Concentration giving 50.00 % Inhibition (5LOA2). Here is the method:
5-Lipoxygenase Assay Using Isolated Human Leukocytes (5LOA2)
The formation of 5-HETE in human leukocytes is considered a measure of 5-lipoxygenase activity. The protocol is described in the following.
Fresh heparinized or EDTA treated human blood is mixed with 6% dextran-3% dextrose in isotonic saline in the ratio 0.25 ml dextran solution per 1.0 ml blood. After mixing the blood is allowed to sit at room temperature for about 90 minutes while the RBC's settle. During this period, the plasma is removed with a plastic pipette to nalgens tubes.
The plasma is centrifuged at 800 rpm ([…]) on the Beckman Td-b refrigerated centrifuge to remove the platelets (which remain in the supernatant). The pellet, consisting of leukocytes and erythrocytes, is treated with 10 ml 0.87% ammonium chloride at room temperature for four minutes, lysing the red cells. At the end of four minutes the cells are diluted with a 2×volume of phosphate buffered saline, pH 7.4, and centrifuged for ten minutes. The cells are washed three times with the phosphate buffered saline. Any of the pelleted cell matter which is not easily resuspended is discarded during the washings --the material contains platelets (12-lipoxygenase activity).
After washing, the cells are resuspended in phosphate buffered saline containing 1.0 mM calcium and 0.5 mM magnesium. After counting the cells are diluted to 1.5-2.0×10^7 leukocytes per milliliter.
To each polypropylene reaction tube is added 0.48 ml leukocytes in Ca-Mg phosphate buffered saline, pH 7.4; 1-5 μl test compound dissolved in DMSO and buffer; or DMSO for control tubes.
The tubes preincubate at 37° C. for five minutes. […]
A portion of the ethanol solution is injected into the HPLC system for 5-HETE quantitation.
The HPLC system consists of Hewlett-Packard 1040A UV spectrophotometry system with an HP85 computer. […] Peaks are measured with a Hewlett Packard 3360A integrator. […] The flow is monitored at 235 nm for 5-HETE quatitation. […]

pIC50: −log10 of the molar value.

For the compound `COc1ccc(CCc2ccc(NC(=O)c3ccc(C)cc3O)cc2)cc1OC` [Example 46, N-[4-[2-(3,4-Dimethoxyphenyl)ethyl]phenyl]-2-hydroxy-4-methylbenzamide], the pIC50 was 5.77.

These data come from patent publication US4939133A, “N-substituted-2-hydroxy-α-oxo-benzeneacetamides and pharmaceutical compositions having activity as modulators of the arachidonic acid cascade” (Warner-Lambert Company, priority 1985, dated 1990).
